Laboratory results as given in PMC7549094 (Journal of Medicinal Chemistry, 2020).

Key:
[1] = pharmacokinetics, summary across preclinical species; format: in vivo, rat, dog, cynomolgus monkey
CYP2D15 = CYP2D15 (Canis lupus familiaris, UniProt Q29473); conditions: panel of dog recombinant CYP enzymes; 1 µM, 30 min
hr DAT = hr DAT (Homo sapiens, UniProt Q01959); assay: receptor profile (Table S4); format: binding
hr NET = hr NET (Homo sapiens, UniProt P23975); assay: receptor profile (Table S4); format: binding
hr D3 = hr D3 (Homo sapiens, UniProt P35462); assay: receptor profile (Table S4); format: binding
hr GR ag = target: T1, hr GR ag (Homo sapiens, UniProt P04150); assay: receptor profile (Table S4); format: biochemical
T1 sequence (P04150 1-777): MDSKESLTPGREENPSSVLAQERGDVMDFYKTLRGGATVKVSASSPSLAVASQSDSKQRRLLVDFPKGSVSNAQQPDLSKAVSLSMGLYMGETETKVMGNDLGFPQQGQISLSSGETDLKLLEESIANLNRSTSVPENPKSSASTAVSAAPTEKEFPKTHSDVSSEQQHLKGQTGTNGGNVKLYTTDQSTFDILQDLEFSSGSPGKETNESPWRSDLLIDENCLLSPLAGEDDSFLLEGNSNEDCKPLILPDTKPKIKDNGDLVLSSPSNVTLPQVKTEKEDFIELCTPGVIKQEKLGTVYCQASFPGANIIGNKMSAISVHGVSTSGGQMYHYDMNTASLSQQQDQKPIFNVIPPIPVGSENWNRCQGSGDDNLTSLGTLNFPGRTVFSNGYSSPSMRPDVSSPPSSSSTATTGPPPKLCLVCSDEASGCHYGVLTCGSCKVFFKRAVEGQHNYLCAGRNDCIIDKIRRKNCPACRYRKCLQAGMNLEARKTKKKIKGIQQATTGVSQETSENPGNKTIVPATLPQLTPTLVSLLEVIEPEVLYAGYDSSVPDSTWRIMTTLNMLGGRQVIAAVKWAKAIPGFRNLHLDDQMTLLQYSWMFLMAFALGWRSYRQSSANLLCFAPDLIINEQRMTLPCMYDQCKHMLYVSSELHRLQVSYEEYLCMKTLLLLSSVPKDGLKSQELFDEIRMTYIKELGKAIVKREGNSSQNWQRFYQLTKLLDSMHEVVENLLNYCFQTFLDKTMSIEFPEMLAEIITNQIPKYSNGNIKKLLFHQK

hr M2 ag = target: T2, hr M2 ag (Homo sapiens, UniProt P08172); assay: receptor profile (Table S4); format: biochemical
T2 sequence (P08172 1-466): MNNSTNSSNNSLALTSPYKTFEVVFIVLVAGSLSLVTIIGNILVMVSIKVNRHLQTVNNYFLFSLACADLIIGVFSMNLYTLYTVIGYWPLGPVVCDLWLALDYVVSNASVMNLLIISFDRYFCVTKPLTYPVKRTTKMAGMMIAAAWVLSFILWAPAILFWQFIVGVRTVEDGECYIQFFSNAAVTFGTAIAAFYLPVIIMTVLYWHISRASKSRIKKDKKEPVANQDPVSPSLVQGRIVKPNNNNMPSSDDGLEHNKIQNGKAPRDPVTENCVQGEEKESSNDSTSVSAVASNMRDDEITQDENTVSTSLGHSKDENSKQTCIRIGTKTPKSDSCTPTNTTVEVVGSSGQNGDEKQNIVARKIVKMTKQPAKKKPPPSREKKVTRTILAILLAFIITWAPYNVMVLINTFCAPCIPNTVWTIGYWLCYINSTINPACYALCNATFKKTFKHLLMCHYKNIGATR

hr OpM = hr OpM (Homo sapiens, UniProt P35372); assay: receptor profile (Table S4); format: binding
hr PR antag = target: T3, hr PR antag (Homo sapiens, UniProt P06401); assay: receptor profile (Table S4); format: biochemical
T3 sequence (P06401 1-933): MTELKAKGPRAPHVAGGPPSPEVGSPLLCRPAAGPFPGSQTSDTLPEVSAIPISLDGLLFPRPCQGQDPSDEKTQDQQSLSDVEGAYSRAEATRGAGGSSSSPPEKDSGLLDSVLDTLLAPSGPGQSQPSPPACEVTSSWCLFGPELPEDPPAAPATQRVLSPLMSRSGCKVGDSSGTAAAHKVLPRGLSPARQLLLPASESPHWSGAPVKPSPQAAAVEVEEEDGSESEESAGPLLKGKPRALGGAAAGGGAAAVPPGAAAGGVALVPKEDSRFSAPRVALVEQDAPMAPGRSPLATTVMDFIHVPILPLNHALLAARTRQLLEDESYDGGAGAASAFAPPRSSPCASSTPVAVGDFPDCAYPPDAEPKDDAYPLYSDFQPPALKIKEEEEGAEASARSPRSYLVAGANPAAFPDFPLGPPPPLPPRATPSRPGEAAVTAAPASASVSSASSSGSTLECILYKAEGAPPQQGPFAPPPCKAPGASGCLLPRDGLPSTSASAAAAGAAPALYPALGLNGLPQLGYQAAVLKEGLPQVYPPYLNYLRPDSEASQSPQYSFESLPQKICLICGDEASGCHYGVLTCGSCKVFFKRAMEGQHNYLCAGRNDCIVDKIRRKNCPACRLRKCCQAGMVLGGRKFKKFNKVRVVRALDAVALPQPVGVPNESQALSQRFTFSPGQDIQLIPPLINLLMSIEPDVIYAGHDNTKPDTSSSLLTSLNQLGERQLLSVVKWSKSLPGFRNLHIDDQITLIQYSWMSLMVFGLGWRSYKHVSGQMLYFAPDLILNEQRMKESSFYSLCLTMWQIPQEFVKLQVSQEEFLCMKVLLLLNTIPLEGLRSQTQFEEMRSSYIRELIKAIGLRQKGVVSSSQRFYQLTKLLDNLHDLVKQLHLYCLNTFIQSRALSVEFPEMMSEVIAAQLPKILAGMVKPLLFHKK

Chain of hr D3 (P35462 whole entry): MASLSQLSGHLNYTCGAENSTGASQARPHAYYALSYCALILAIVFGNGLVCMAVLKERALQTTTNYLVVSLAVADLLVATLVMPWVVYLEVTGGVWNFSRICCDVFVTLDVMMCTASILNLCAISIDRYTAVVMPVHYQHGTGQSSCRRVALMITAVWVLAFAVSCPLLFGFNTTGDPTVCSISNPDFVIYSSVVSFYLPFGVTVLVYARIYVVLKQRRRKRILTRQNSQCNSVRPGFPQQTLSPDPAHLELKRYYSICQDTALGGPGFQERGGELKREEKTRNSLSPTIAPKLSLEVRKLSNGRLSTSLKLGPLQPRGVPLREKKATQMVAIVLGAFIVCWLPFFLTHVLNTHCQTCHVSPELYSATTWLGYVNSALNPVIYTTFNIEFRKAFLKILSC
Chain of hr DAT (Q01959 whole entry): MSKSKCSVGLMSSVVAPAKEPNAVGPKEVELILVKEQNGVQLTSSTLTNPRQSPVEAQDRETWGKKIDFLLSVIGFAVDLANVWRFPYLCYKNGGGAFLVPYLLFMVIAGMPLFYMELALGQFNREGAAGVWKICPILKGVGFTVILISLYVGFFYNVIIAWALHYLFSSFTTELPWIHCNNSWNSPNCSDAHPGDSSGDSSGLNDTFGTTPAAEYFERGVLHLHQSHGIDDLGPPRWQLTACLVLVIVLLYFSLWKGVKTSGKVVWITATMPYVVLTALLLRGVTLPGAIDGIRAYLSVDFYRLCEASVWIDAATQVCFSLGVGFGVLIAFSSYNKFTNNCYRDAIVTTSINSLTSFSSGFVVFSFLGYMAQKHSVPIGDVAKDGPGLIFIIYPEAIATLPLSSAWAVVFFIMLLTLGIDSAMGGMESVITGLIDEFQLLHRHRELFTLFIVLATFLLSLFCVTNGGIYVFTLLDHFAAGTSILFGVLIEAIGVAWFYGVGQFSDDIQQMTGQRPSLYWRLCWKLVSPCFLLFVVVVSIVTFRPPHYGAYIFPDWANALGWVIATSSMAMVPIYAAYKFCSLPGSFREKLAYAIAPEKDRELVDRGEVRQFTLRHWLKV
Chain of hr OpM (P35372 whole entry): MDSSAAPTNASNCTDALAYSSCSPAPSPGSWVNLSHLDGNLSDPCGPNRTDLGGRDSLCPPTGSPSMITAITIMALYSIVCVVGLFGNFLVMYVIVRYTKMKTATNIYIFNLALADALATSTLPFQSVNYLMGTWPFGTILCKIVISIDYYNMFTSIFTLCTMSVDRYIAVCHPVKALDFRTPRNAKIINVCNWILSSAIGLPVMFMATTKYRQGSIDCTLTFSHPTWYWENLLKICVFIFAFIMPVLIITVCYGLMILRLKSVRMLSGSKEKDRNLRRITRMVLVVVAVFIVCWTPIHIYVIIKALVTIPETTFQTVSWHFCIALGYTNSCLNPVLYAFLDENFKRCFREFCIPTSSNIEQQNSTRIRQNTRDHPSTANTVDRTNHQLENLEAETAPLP
Chain of hr NET (P23975 whole entry): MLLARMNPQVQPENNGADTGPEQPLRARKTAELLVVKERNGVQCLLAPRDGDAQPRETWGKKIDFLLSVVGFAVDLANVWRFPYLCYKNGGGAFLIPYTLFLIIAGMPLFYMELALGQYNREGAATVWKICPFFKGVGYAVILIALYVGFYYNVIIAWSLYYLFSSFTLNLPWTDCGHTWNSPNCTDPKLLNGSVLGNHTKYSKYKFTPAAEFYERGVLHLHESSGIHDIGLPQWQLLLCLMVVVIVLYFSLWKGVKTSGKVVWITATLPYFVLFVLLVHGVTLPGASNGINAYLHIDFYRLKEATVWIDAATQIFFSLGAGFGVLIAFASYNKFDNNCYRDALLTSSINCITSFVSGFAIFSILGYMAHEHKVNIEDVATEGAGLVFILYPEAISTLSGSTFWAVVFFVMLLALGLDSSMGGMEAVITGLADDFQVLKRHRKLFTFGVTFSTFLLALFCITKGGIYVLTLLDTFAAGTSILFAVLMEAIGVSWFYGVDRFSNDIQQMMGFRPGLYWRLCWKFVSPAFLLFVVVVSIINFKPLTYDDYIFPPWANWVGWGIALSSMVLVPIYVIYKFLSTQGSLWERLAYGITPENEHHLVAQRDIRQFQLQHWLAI
Chain of CYP2D15 (Q29473 whole entry): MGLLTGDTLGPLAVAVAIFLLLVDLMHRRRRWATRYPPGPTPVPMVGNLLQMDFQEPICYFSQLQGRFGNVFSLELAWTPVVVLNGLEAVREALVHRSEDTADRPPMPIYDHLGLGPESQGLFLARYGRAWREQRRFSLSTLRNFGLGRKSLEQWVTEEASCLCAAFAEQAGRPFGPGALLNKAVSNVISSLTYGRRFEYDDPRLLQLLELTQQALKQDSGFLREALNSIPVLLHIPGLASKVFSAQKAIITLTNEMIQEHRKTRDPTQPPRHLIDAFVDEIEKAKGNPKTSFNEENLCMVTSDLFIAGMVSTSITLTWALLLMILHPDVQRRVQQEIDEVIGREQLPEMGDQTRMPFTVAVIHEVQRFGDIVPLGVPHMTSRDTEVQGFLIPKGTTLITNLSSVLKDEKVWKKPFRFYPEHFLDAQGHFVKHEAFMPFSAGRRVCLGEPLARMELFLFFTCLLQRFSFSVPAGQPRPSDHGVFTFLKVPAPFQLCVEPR

Cc1nc(C)c(C(=O)Nc2ccc(F)c(-c3nc4ncc(-c5ncccc5C)cn4n3)c2)o1 [compound 1, N-(4-Fluoro-3-(6-(3-methylpyridin-2-yl)-[1,2,4]triazolo[1,5-a]pyrimidin-2-yl)phenyl)-2,4-dimethyloxazole-5-carboxamide]
bioavailability ([1]; Balb/c (mouse), Wistar (rat), beagle (dog), rat, dog, cynomolgus monkey, in vivo, po, across the tested species, conventional suspension formulations): 27 to 67%
half-life ([1]; male, Balb/c (mouse), Wistar (rat), beagle (dog), rat, dog, cynomolgus monkey, in vivo, across species following IV administration, read-out: plasma terminal half-life): 3 to 10 h
CL as % of hepatic blood flow ([1]; mouse, rat, and monkey, IV, fumarate salt): 2–17 % of hepatic blood flow
metabolism by dog recombinant CYP enzymes (CYP2D15): metabolized to 8 predominantly by CYP2D15
EC50/IC50 (hr DAT; hr DAT): > 30 µM
inhibition at 10 µM (hr DAT; read-out: % inh/act @ 10 µM): 17%
inhibition at 30 µM (hr DAT; read-out: % inh/act @ 30 µM): 22%
EC50/IC50 (hr NET; hr NET): > 30 µM
inhibition at 10 µM (hr NET; read-out: % inh/act @ 10 µM): 19%
inhibition at 30 µM (hr NET; read-out: % inh/act @ 30 µM): 24%
EC50/IC50 (hr D3; hr D3): > 30 µM
inhibition at 10 µM (hr D3; read-out: % inh/act @ 10 µM): 9%
inhibition at 30 µM (hr D3; read-out: % inh/act @ 30 µM): 7%
EC50/IC50 (hr GR ag; hr GR ag): > 30 µM
inhibition at 10 µM (hr GR ag; read-out: % inh/act @ 10 µM): -5%
inhibition at 30 µM (hr GR ag; read-out: % inh/act @ 30 µM): -4%
EC50/IC50 (hr M2 ag; hr M2 ag): > 30 µM
inhibition at 10 µM (hr M2 ag; read-out: % inh/act @ 10 µM): 0%
inhibition at 30 µM (hr M2 ag; read-out: % inh/act @ 30 µM): 1%
EC50/IC50 (hr OpM; hr OpM): > 30 µM
inhibition at 10 µM (hr OpM; read-out: % inh/act @ 10 µM): 18%
inhibition at 30 µM (hr OpM; read-out: % inh/act @ 30 µM): 19%
EC50/IC50 (hr PR antag; hr PR antag): > 30 µM
inhibition at 10 µM (hr PR antag; read-out: % inh/act @ 10 µM): -11%
inhibition at 30 µM (hr PR antag; read-out: % inh/act @ 30 µM): -5%
% inh/act @ 10 µM (h Nic(cns)): 20%
% inh/act @ 30 µM (h Nic(cns)): 24%
